Experimental data from US20120088827A1 (Profectus Biosciences, Inc., priority 2009, published 2012).

Test system: PGE2
Assay: Inhibition of PGE2 release in LPS-stimulated RAW 264.7 cells
Assay type: cell-based
Conditions: Mus musculus, RAW264.7; pretreated 2 hours, 1 μg/mL LPS 20-24 hours
Experimental: RAW 264.7 cells were seeded at 4×10^4 cells per well in complete growth medium in 96 well white TC plates with clear bottoms one day prior to the assay. The next day the cells were washed once and 100 μL fresh growth media was added. Cells were pretreated with 0.5 μL from a 6 point 200× dilution series of the test compounds in DMSO for 2 hours. Following pretreatment with the drugs, the inflammatory response was induced by adding 5 μL of a 20 μg/mL solution of LPS (Sigma). The cells were incubated in the presence of the drugs and 1 μg/mL LPS for another 20-24 hours. Typically after treatment the total DMSO was […] of the culture volume and the final concentrations of the compounds were approximately: 40, 20, 10, 1, 0.2 and 0 μM depending on the MW of each compound. Modified dilution series were prepared as needed to get adequate dose response curves without changing the % DMSO. Samples were run in duplicate or triplicate and included DMSO treated control wells with and without LPS stimulation. Drugs with a known activity such as Parthenolide or DHMEQ were run as experimental controls. After 20-24 hours LPS activation, the media supernatant was collected from the cells and replaced with fresh media. The supernatant samples were cleared by centrifugation at 1,000×g for 5 minutes, transferred to fresh storage plates, and stored frozen at −30° C.
After determining the appropriate supernatant dilutions experimentally, PGE2 levels in the supernatants were quantified using Parameter™ PGE2 Immunoassay (R&D Systems) according to the manufacturer's protocol. […] Absorbance at 450 nm with a reference at 595 nm was recorded using a Becton-Dickinson DTX 880 Multimode Detector.
The concentration of PGE2 in the unknown samples was determined from a curve-fit of the PGE2 standard absorbance data and multiplying by the dilution factor. […] Inhibition of the amount of PGE2 released in the drug treated wells was calculated relative to the maximum activation in the DMSO+LPS treated control wells (i.e., % inhibition=100−(drug+LPS treated)/(DMSO+LPS treated)). […]

EC50	Compound
2700 nM	CC(C)OC(=O)Oc1ccccc1C(=O)NC1=CC(=O)C2OC2C1OC(=O)OC(C)C (racemic) [Example 2, (±)-3-(2-isopropoxycarbonyloxy-benzoylamino)-5-oxo-7-oxa-bicyclo[4.1.0]hept-3-en-2-yl ester isopropyl ester]
1900 nM	CC(C)CC(=O)Oc1ccccc1C(=O)NC1=CC(=O)C2OC2C1O (racemic) [Example 1, (±)-2-(2-hydroxy-5-oxo-7-oxabicyclo[4.1.0]hept-3-en-3-ylcarbamoyl)phenyl 3-methylbutanoate]
1100 nM	O=C(CC1CCCCC1)Oc1ccccc1C(=O)NC1=CC(=O)C2OC2C1O (racemic) [Example 3, (±)-2-(2-hydroxy-5-oxo-7-oxabicyclo[4.1.0]hept-3-en-3-ylcarbamoyl)phenyl 2-cyclohexylacetate]
